In ChEMBL document CHEMBL4330124, “Discovery of an Orally Available Janus Kinase 3 Selective Covalent Inhibitor” (J Med Chem, 2019):
The source made the active and inactive calls. No cut-off for these calls is given here.

What was measured:
Homo sapiens [1] = species on record: Homo sapiens; assay: Inhibition of IL10/JAK/STAT3 signaling in human PBMC assessed as reduction in LPS-induced IL6 production at 100 nM preincubated for 2 hrs followed by LPS stimulation measured after 24 hrs by ELISA
Homo sapiens [2] = species on record: Homo sapiens; assay: Inhibition of IL10/JAK/STAT3 signaling in human PBMC assessed as reduction in LPS-induced TNFalpha production at 100 nM preincubated for 2 hrs followed by LPS stimulation measured after 24 hrs by ELISA
PBMC = assay: Effect on IL6-induced MCP1 production in human PBMC at 100 to 6000 nM preincubated for 2 hrs followed by IL6 stimulation measured after 24 hrs by ELISA; type: functional, cell-based
[3] = molecular target: Epidermal growth factor receptor (Homo sapiens) (UniProt P00533); assay: Inhibition of EGFR (unknown origin) at 1 uM after 60 mins by Z-LYTE assay
[4] = molecular target: Tyrosine-protein kinase BTK (Homo sapiens) (UniProt Q06187); assay: Inhibition of BTK (unknown origin) at 1 uM after 60 mins by Z-LYTE assay
[5] = molecular target: T1, Tyrosine-protein kinase ITK/TSK (Homo sapiens) (UniProt Q08881); assay: Inhibition of ITK (unknown origin) at 1 uM after 60 mins by Z-LYTE assay
T1 sequence (whole entry): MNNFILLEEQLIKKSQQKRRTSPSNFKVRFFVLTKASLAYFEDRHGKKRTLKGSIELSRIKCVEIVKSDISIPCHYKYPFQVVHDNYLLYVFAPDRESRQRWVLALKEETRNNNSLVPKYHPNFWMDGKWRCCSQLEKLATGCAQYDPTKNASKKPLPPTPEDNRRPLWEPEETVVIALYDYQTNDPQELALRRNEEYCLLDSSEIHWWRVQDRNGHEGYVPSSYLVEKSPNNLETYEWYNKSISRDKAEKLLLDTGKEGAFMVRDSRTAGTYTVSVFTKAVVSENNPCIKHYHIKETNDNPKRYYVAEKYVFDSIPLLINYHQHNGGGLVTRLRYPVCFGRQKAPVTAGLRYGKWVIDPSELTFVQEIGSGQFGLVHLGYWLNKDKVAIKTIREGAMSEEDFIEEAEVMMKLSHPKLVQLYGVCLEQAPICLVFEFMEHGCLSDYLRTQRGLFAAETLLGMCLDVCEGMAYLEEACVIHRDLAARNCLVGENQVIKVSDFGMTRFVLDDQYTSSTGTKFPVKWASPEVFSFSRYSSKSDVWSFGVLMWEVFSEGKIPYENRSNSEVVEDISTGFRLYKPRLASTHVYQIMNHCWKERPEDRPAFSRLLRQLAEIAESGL

[6] = molecular target: Protein kinase C gamma type (Homo sapiens) (UniProt P05129); assay: Inhibition of PKCgamma (unknown origin) at 1 uM after 60 mins by Z-LYTE assay relative to control
[7] = molecular target: Glycogen synthase kinase-3 beta (Homo sapiens) (UniProt P49841); assay: Inhibition of GSK3beta (unknown origin) at 1 uM after 60 mins by Z-LYTE assay relative to control
[8] = molecular target: Protein kinase C alpha type (Homo sapiens) (UniProt P17252); assay: Inhibition of PKCalpha (unknown origin) at 1 uM after 60 mins by Z-LYTE assay relative to control
[9] = Clearance in ICR mouse at 5 mg/kg, po via gavage by LC/MS/MS analysis; type: ADME, organism-based; conditions: in vivo

Tyrosine-protein kinase BTK (Homo sapiens), sequence (Q06187 whole entry): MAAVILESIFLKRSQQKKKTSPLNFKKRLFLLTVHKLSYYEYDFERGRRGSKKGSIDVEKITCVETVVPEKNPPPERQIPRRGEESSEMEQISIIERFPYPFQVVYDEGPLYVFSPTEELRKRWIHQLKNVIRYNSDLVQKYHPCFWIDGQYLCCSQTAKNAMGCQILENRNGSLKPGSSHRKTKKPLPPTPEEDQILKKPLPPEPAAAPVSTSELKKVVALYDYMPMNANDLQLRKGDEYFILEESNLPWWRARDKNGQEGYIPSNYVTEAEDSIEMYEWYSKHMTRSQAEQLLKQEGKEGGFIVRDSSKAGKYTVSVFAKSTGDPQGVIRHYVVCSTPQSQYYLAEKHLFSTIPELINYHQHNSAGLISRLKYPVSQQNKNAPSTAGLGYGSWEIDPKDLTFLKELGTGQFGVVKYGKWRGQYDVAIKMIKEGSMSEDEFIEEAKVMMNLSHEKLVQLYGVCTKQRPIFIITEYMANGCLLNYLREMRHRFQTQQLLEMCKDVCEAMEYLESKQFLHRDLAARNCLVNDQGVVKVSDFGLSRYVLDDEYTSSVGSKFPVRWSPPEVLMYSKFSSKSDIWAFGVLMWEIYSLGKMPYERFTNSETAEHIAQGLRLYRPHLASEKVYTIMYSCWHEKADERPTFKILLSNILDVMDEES
Epidermal growth factor receptor (Homo sapiens), sequence (P00533 whole entry): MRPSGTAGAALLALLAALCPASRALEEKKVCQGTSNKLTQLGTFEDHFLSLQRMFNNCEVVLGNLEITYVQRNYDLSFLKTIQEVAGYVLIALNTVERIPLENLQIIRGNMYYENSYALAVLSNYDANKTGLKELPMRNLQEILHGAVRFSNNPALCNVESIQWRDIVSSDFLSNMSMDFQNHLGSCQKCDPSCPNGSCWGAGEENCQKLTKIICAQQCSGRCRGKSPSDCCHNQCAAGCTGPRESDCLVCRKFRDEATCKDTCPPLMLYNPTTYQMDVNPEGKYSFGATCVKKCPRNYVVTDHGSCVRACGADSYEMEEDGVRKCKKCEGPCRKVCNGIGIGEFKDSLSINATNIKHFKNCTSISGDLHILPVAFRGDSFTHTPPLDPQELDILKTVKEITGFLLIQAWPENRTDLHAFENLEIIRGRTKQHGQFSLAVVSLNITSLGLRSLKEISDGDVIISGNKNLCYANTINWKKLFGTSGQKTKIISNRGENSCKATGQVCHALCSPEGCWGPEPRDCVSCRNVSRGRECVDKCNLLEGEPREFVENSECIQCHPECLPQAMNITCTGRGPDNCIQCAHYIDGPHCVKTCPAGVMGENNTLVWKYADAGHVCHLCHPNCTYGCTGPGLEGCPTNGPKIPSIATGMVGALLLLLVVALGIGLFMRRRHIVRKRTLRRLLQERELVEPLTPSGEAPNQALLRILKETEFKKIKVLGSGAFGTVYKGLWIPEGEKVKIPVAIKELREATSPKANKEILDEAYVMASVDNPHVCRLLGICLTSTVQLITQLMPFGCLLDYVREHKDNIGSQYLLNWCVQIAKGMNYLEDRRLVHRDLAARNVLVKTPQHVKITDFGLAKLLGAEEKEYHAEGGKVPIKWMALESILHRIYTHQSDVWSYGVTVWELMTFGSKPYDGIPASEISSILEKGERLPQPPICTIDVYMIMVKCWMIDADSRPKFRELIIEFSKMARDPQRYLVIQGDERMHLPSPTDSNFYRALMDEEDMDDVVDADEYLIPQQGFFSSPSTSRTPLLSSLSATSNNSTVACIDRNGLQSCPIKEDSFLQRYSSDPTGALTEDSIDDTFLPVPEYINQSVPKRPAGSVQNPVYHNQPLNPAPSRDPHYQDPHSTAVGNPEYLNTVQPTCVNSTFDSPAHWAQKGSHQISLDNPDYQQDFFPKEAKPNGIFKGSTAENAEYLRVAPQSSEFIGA
Glycogen synthase kinase-3 beta (Homo sapiens), sequence (P49841 whole entry, looked up): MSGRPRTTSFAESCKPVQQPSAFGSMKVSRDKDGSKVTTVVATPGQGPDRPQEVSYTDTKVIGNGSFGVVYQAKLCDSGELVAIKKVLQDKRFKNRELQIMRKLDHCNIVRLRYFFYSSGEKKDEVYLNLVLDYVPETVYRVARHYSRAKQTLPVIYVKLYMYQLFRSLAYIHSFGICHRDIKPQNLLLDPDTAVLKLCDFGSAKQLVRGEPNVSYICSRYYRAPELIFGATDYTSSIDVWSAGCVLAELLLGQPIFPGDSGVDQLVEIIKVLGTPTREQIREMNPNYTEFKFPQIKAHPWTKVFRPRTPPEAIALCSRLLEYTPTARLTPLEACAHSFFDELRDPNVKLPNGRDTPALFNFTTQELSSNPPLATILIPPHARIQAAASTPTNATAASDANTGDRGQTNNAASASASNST

SMILES | inhibition (Homo sapiens [1]) | inhibition (Homo sapiens [2]) | Activity (PBMC) | inhibition [3] | inhibition [4] | inhibition [5] | inhibition [6] | inhibition [7] | inhibition [8] | CL/F [9]
C=CC(=O)N1C[C@H](Nc2ncnc3[nH]ccc23)CC[C@@H]1C | Active | Active | inactive |  |  |  |  |  |  | 
C=CC(=O)N1CCN(c2ccc([N+](=O)[O-])c(C3=C(c4c[nH]c5ccccc45)C(=O)NC3=O)c2)CC1 | Active | Active | inactive | Active | Active | Active | > 80% | > 80% | > 80% | 138 mL/min/kg
CC(C)(O)C(=O)N1CCN(c2ccc(C(F)(F)F)c(C3=C(c4c[nH]c5ccccc45)C(=O)NC3=O)c2)CC1 | Active | Active | inactive |  |  |  |  |  |  | 
